These results are taken from patent US5684005A, “Pharmacologically active CNS compounds” (Glaxo Wellcome Inc., priority 1988, dated 1997).

The test system of assay [1] is release of glutamate. Particulars: in words, literature; cited from earlier work.
The subject of assay [2] is release of aspartate. The conditions noted are these: in words, literature; cited from earlier work.
The nature of assay [3]: Duration of action / clearance from central nervous system. Particulars: in words.

For `Nc1nnc(-c2cccc(Cl)c2Cl)c(N)n1` [lamotrigine, 3,5-diamino-6-(2,3-dichlorophenyl)-1,2,4-triazine], the “inhibition of glutamate release” value in assay [1] is listed as “shown to inhibit the release”. In assay [2], the “inhibition of aspartate release” value is given as “shown to inhibit the release”.
Consider `CN1CCN(c2nc(N)c(-c3cc(Cl)cc(Cl)c3Cl)c(C(F)(F)F)n2)CC1` [Example 1, 4-Amino-2-(4-methylpiperazin-1-yl)-5-(2,3,5-trichlorophenyl)-6-trifluoromethylpyrimidine], for which, in assay [3], the duration of action result is “long acting”.
Still for that read-out and setting: to `COCc1nc(N)nc(N)c1-c1cc(Cl)cc(Cl)c1Cl` [Example 2, 2,4-Diamino-5-(2,3,5-trichlorophenyl)-6-methoxymethyl pyrimidine] belongs “short acting”; to `Nc1nc(N)c(-c2cc(Cl)cc(Cl)c2Cl)c(C(F)(F)F)n1` [Example 4, 2,4-Diamino-5-(2,3,5-trichlorophenyl)-6-trifluoromethyl pyrimidine], “long acting”.
Same read-out and setting: the value for `CN1CCN(c2ncc(-c3cc(Cl)cc(Cl)c3Cl)c(N)n2)CC1.CS(=O)(=O)O` [Example 3, 4-Amino-2-(4-methylpiperazin-1-yl)-5-(2,3,5-trichlorophenyl) pyrimidine mesylate] was “long acting”.
